Laboratory results published in the supplement of paper PMC10307832.

Tests used:
Assay in all cases: relative viability (nuclei count vs DMSO), 5 days (fraction); higher = more cells survive
XMD13-2 + Palbociclib = compound: C1CC1C(=O)NC2=NNC3=C2C=CC(=C3)C4=CC(=CC=C4)C(=O)NC5CC5 [XMD13-2] + CC(=O)c1c(C)c2cnc(Nc3ccc(N4CCNCC4)cn3)nc2n(C2CCCC2)c1=O [Palbociclib] (partner 0.5 µM)
How it was run: (§1)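 The day after seeding in 1536-well plates, lung cancer cell lines were treated by pin tool with a single drug, or with a fixed anchor-drug dose together with five library-drug doses (not always all listed) in √10 steps. After 5 days, a combined fix-and-stain solution (final 0.05% Triton X-100, 1% formaldehyde, 1 ug/ml Hoechst) was added. Nuclei counted on 4× images gave relative viability as treated counts over vehicle counts, reported as the median of duplicate plates.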

XMD13-2 + Tozasertib = compound: C1CC1C(=O)NC2=NNC3=C2C=CC(=C3)C4=CC(=CC=C4)C(=O)NC5CC5 [XMD13-2] + Cc1cc(Nc2cc(N3CCN(C)CC3)nc(Sc3ccc(NC(=O)C4CC4)cc3)n2)n[nH]1 [Tozasertib] (partner 0.1 µM)
How it was run: as §1

ALW-II-49-7 + OSI-027 = compound: Cc1ccc(C(=O)Nc2cccc(C(F)(F)F)c2)cc1Nc1cncc(C(N)=O)c1 [ALW-II-49-7] + COc1cccc2cc(-c3nc([C@H]4CC[C@H](C(=O)O)CC4)n4ncnc(N)c34)[nH]c12 [OSI-027] (partner 0.5 µM)
How it was run: as §1

Dasatinib + Phenformin = compound: Cc1nc(Nc2ncc(C(=O)Nc3c(C)cccc3Cl)s2)cc(N2CCN(CCO)CC2)n1 [Dasatinib] + N=C(N)NC(=N)NCCc1ccccc1 [Phenformin] (partner 250 µM)
How it was run: as §1

Row | Cell Line | relative viability (XMD13-2 + Palbociclib; first compound 0.05 µM) | relative viability (XMD13-2 + Palbociclib; first compound 0.1581 µM) | relative viability (XMD13-2 + Palbociclib; first compound 0.5 µM) | relative viability (XMD13-2 + Palbociclib; first compound 1.581 µM) | relative viability (XMD13-2 + Palbociclib; first compound 5 µM) | relative viability (XMD13-2 + Tozasertib; first compound 0.05 µM) | relative viability (XMD13-2 + Tozasertib; first compound 0.1581 µM) | relative viability (XMD13-2 + Tozasertib; first compound 0.5 µM) | relative viability (XMD13-2 + Tozasertib; first compound 1.581 µM) | relative viability (XMD13-2 + Tozasertib; first compound 5 µM) | relative viability (ALW-II-49-7 + OSI-027; first compound 0.08 µM) | relative viability (ALW-II-49-7 + OSI-027; first compound 0.253 µM) | relative viability (ALW-II-49-7 + OSI-027; first compound 0.8 µM) | relative viability (ALW-II-49-7 + OSI-027; first compound 2.53 µM) | relative viability (ALW-II-49-7 + OSI-027; first compound 8 µM) | relative viability (Dasatinib + Phenformin; first compound 0.005 µM) | relative viability (Dasatinib + Phenformin; first compound 0.01581 µM) | relative viability (Dasatinib + Phenformin; first compound 0.05 µM) | relative viability (Dasatinib + Phenformin; first compound 0.1581 µM) | relative viability (Dasatinib + Phenformin; first compound 0.5 µM)
1 | NCI-H1437 | 0.297 | 0.299 | 0.335 | 0.327 | 0.255 | 0.427 | 0.438 | 0.411 | 0.395 | 0.404 | 0.835 | 0.744 | 0.751 | 0.877 | 0.75 | 0.322 | 0.207 | 0.261 | 0.222 | 0.148
2 | NCI-H358 | 0.139 | 0.121 | 0.133 | 0.117 | 0.129 | 0.126 | 0.121 | 0.102 | 0.114 | 0.0991 | 0.722 | 0.788 | 0.628 | 0.756 | 0.611 | 0.301 | 0.247 | 0.264 | 0.156 | 0.157
3 | SW 900 | 0.592 | 0.382 | 0.669 | 0.549 | 0.589 | 0.62 | 0.573 | 0.506 | 0.473 | 0.533 | 0.426 | 0.642 | 0.555 | 0.445 | 0.347 | 0.489 | 0.568 | 0.53 | 0.466 | 0.294
4 | NCI-H1355 | 0.442 | 0.365 | 0.42 | 0.398 | 0.425 | 0.64 | 0.631 | 0.638 | 0.548 | 0.589 | 0.372 | 0.404 | 0.363 | 0.364 | 0.353 | 0.435 | 0.391 | 0.432 | 0.352 | 0.325
5 | SK-LU-1 | 0.42 | 0.393 | 0.38 | 0.378 | 0.319 | 0.335 | 0.338 | 0.432 | 0.309 | 0.323 | 0.269 | 0.345 | 0.313 | 0.289 | 0.252 | 0.342 | 0.257 | 0.193 | 0.179 | 0.148
6 | NCI-H2228 | 1.03 | 0.779 | 0.724 | 0.709 | 0.818 | 0.267 | 0.32 | 0.273 | 0.209 | 0.237 | 0.502 | 0.269 | 0.496 | 0.59 | 0.471 | 0.354 | 0.298 | 0.28 | 0.242 | 0.218
7 | NCI-H2170 | 0.392 | 0.4 | 0.399 | 0.407 | 0.319 | 0.646 | 0.737 | 0.774 | 0.672 | 0.719 | 0.71 | 0.931 | 0.67 | 0.664 | 0.703 | 0.426 | 0.379 | 0.357 | 0.294 | 0.177
8 | NCI-H2347 | 0.471 | 0.424 | 0.465 | 0.382 | 0.471 | 0.559 | 0.577 | 0.727 | 0.487 | 0.517 | 0.386 | 0.396 | 0.443 | 0.36 | 0.276 | 0.278 | 0.209 | 0.22 | 0.178 | 0.212
9 | A-427 | 0.568 | 0.499 | 0.573 |  | 0.473 | 0.213 | 0.199 | 0.2 | 0.159 | 0.195 | 0.412 | 0.484 | 0.472 | 0.444 | 0.473 | 0.326 | 0.262 | 0.277 | 0.266 | 0.225
10 | HCC-366 | 0.466 | 0.362 | 0.473 | 0.407 | 0.403 | 0.0882 | 0.0936 | 0.127 | 0.115 | 0.116 | 0.977 | 1.17 | 0.731 | 0.985 | 0.627 | 0.606 | 0.571 | 0.484 | 0.426 | 0.336
11 | HCC-78 | 0.45 | 0.459 | 0.448 | 0.438 | 0.483 | 0.362 | 0.436 | 0.372 | 0.346 | 0.282 | 0.34 | 0.394 |  | 0.36 | 0.395 | 0.436 | 0.581 | 0.581 | 0.465 | 0.245
12 | PC-14 | 0.597 | 0.526 | 0.517 | 0.586 | 0.568 | 0.605 | 0.657 | 0.632 | 0.608 | 0.562 | 0.815 | 0.824 | 0.622 | 0.645 | 0.579 | 0.618 | 0.681 | 0.553 | 0.339 | 0.152
13 | NCI-H2087 | 0.248 | 0.261 | 0.184 | 0.184 | 0.258 | 0.264 | 0.239 | 0.268 | 0.223 | 0.207 | 0.578 | 0.537 | 0.525 | 0.547 | 0.51 | 0.517 | 0.461 | 0.562 | 0.343 | 0.161
14 | HOP-62 | 0.464 | 0.485 | 0.448 | 0.413 | 0.348 | 0.363 | 0.418 | 0.399 | 0.393 | 0.271 | 0.768 | 0.96 | 0.875 | 0.721 | 0.608 | 0.687 | 0.608 | 0.704 | 0.569 | 0.281
15 | EKVX | 0.45 | 0.376 | 0.33 |  | 0.397 | 0.468 | 0.414 | 0.405 | 0.394 | 0.45 | 0.579 | 0.773 | 0.578 | 0.653 | 0.679 | 0.218 | 0.21 | 0.177 | 0.136 | 0.102
16 | EMC-BAC-2 | 0.558 | 0.519 | 0.536 | 0.497 | 0.47 | 0.284 | 0.28 | 0.19 | 0.273 | 0.267 | 0.351 | 0.39 | 0.336 | 0.296 | 0.305 | 0.476 | 0.326 | 0.429 | 0.224 | 0.172
